# In patent US20230047788A1, “COMPOSITIONS COMPRISING 5-CHOLESTEN-3, 25-DIOL, 3-SULFATE (25HC3S) OR PHARMACEUTICALLY ACCEPTABLE SALT THEREOF AND AT LEAST ONE CYCLIC OLIGOSACCHARIDE” (Virginia Commonwealth University, priority 2016, published 2023):
# Experiment: Stability testing for 25HC3S sodium salt for injection, 30 mg/mL after constitution
# Format: physicochemical
# Conditions: for Degree of Coloration of Liquids: BY = brown-yellow
# Protocol: Sterile water for injection, USP (6.14 kg) was added into a 10L stainless steel vessel. […] HPbCD, NF (1851.85 g) was added in small portions over 15 minutes with slow stirring into the beaker. The stirring was increased to 250-350 rpm for an additional minimum 30 minutes to form a clear solution. The solution was filtered through a 0.22 micron filter. Filtered vehicle (7 mL) was filled into 10 mL glass vials, which were sealed with 20 mm stoppers, and crimp sealed. The vehicle vials were sterilized with gamma irradiation at approximately 28-32 kGy.
# 25HC3S sodium salt was micronized by passing through a Fluid Energy Model 00 Jet-O-Mizer Jet Mill. Micronized drug substance (186 mg) was added into a 10 mL glass vial, sealed with 20 mm stoppers, and crimp sealed. The 25HC3S powder vials were sterilized with gamma irradiation at approximately 28-32 kGy
# Sterile vehicle (6.0 mL) comprised of 250 mg/mL HPbCD and 10 mM phosphate buffer was added to a vial of 25HC3S micronized powder. The mixture was shaken for 15 minutes to prepare a solution resulting in a 25HC3S sodium salt concentration of 30 mg/mL (allowing for 3% dilution upon the dissolution of drug).
# Stability data for 6 months at 2-8° C. to 40° C./75% RH for 25HC3S for injection, 30 mg/mL after constitution, are listed in Table 5. This lot of 25HC3S powder, and the vehicle used to constitute it, were gamma sterilized at approximately 28-32 kGy. The data supports a 12 month retest date when stored at 2-8° C.
compound,measurement,setting,value
"C[C@H](CCCC(C)(C)O)[C@H]1CC[C@H]2[C@@H]3CC=C4C[C@@H](OS(=O)(=O)[O-])CC[C@]4(C)[C@H]3CC[C@]12C.[Na+] [25HC3S, 5-cholesten-3, 25-diol, 3-sulfate]",% Individual Unspecified Degradant RRT = 0.60,"2-8°C, 0 months",0.2%
same,% Individual Unspecified Degradant RRT = 0.64,"2-8°C, 0 months",0.4%
same,% Individual Unspecified Degradant RRT = 2.74,"2-8°C, 0 months",0.4%
same,% Individual Unspecified Degradant RRT = 3.77,"2-8°C, 0 months",0.3%
same,% Total Degradation Products,"2-8°C, 0 months",2.5%
same,% Water Content,"2-8°C, 0 months",6.23%
same,Appearance,"2-8°C, 0 months",White powder
same,Assay (label strength of 30 mg/mL),"2-8°C, 0 months",Mean: 98.7%
same,Osmolality,"2-8°C, 0 months",321 mmol/kg
same,pH,"2-8°C, 0 months",6.62
same,Degree of Coloration of Liquids,"2-8°C, 0 months",BY6
same,% Individual Unspecified Degradant RRT = 0.60,"2-8°C, 3 months",0.2%
same,% Individual Unspecified Degradant RRT = 0.64,"2-8°C, 3 months",0.4%
same,% Individual Unspecified Degradant RRT = 2.74,"2-8°C, 3 months",0.4%
same,% Individual Unspecified Degradant RRT = 3.77,"2-8°C, 3 months",0.3%
same,% Total Degradation Products,"2-8°C, 3 months",2.8%
same,% Water Content,"2-8°C, 3 months",5.62%
same,Assay (label strength of 30 mg/mL),"2-8°C, 3 months",96.7%
same,Osmolality,"2-8°C, 3 months",322 mmol/kg
same,pH,"2-8°C, 3 months",5.82
same,% Individual Unspecified Degradant RRT = 0.60,"2-8°C, 6 months",0.3%
same,% Individual Unspecified Degradant RRT = 0.64,"2-8°C, 6 months",0.4%
same,% Individual Unspecified Degradant RRT = 2.74,"2-8°C, 6 months",0.4%
same,% Individual Unspecified Degradant RRT = 3.77,"2-8°C, 6 months",0.3%
same,% Total Degradation Products,"2-8°C, 6 months",3.0%
same,% Water Content,"2-8°C, 6 months",6.13%
same,Assay (label strength of 30 mg/mL),"2-8°C, 6 months",100.0%
same,Osmolality,"2-8°C, 6 months",323 mmol/kg
same,pH,"2-8°C, 6 months",5.34
same,Degree of Coloration of Liquids,"2-8°C, 6 months",BY6
same,% Individual Unspecified Degradant RRT = 0.60,"25°C/60% RH, 1 month",0.3%
same,% Individual Unspecified Degradant RRT = 0.64,"25°C/60% RH, 1 month",0.4%
same,% Individual Unspecified Degradant RRT = 2.74,"25°C/60% RH, 1 month",0.4%
same,% Individual Unspecified Degradant RRT = 3.77,"25°C/60% RH, 1 month",0.3%
same,% Total Degradation Products,"25°C/60% RH, 1 month",2.9%
same,% Water Content,"25°C/60% RH, 1 month",5.29%
same,Assay (label strength of 30 mg/mL),"25°C/60% RH, 1 month",98.3%
same,Osmolality,"25°C/60% RH, 1 month",330 mmol/kg
same,pH,"25°C/60% RH, 1 month",5.18
same,% Individual Unspecified Degradant RRT = 0.60,"25°C/60% RH, 3 months",0.3%
same,% Individual Unspecified Degradant RRT = 0.64,"25°C/60% RH, 3 months",0.4%
same,% Individual Unspecified Degradant RRT = 2.74,"25°C/60% RH, 3 months",0.4%
same,% Individual Unspecified Degradant RRT = 3.77,"25°C/60% RH, 3 months",0.3%
same,% Total Degradation Products,"25°C/60% RH, 3 months",2.9%
same,% Water Content,"25°C/60% RH, 3 months",5.40%
same,Assay (label strength of 30 mg/mL),"25°C/60% RH, 3 months",96.0%
same,Osmolality,"25°C/60% RH, 3 months",322 mmol/kg
same,Degree of Coloration of Liquids,"25°C/60% RH, 3 months",BY5
same,% Individual Unspecified Degradant RRT = 0.60,"25°C/60% RH, 6 months",0.4%
same,% Individual Unspecified Degradant RRT = 0.64,"25°C/60% RH, 6 months",0.4%
same,% Individual Unspecified Degradant RRT = 2.74,"25°C/60% RH, 6 months",0.4%
same,% Individual Unspecified Degradant RRT = 3.77,"25°C/60% RH, 6 months",0.3%
same,% Total Degradation Products,"25°C/60% RH, 6 months",3.0%
same,% Water Content,"25°C/60% RH, 6 months",5.65%
same,Assay (label strength of 30 mg/mL),"25°C/60% RH, 6 months",96.2%
same,Osmolality,"25°C/60% RH, 6 months",319 mmol/kg
same,Degree of Coloration of Liquids,"25°C/60% RH, 6 months",BY5
same,% Individual Unspecified Degradant RRT = 0.60,"40°C/75% RH, 1 month",0.3%
same,% Individual Unspecified Degradant RRT = 0.64,"40°C/75% RH, 1 month",0.4%
same,% Individual Unspecified Degradant RRT = 2.74,"40°C/75% RH, 1 month",0.4%
same,% Individual Unspecified Degradant RRT = 3.77,"40°C/75% RH, 1 month",0.3%
same,% Total Degradation Products,"40°C/75% RH, 1 month",2.9%
same,% Water Content,"40°C/75% RH, 1 month",5.03%
same,Assay (label strength of 30 mg/mL),"40°C/75% RH, 1 month",95.8%
same,Osmolality,"40°C/75% RH, 1 month",330 mmol/kg
same,% Individual Unspecified Degradant RRT = 0.60,"40°C/75% RH, 3 months",0.3%
same,% Individual Unspecified Degradant RRT = 0.64,"40°C/75% RH, 3 months",0.4%
same,% Individual Unspecified Degradant RRT = 2.74,"40°C/75% RH, 3 months",0.5%
same,% Individual Unspecified Degradant RRT = 3.77,"40°C/75% RH, 3 months",0.4%
same,% Total Degradation Products,"40°C/75% RH, 3 months",3.3%
same,% Water Content,"40°C/75% RH, 3 months",5.33%
same,Assay (label strength of 30 mg/mL),"40°C/75% RH, 3 months",96.2%
same,Osmolality,"40°C/75% RH, 3 months",327 mmol/kg
same,% Individual Unspecified Degradant RRT = 0.60,"40°C/75% RH, 6 months",0.4%
same,% Individual Unspecified Degradant RRT = 0.64,"40°C/75% RH, 6 months",0.5%
same,% Individual Unspecified Degradant RRT = 2.74,"40°C/75% RH, 6 months",0.4%
same,% Individual Unspecified Degradant RRT = 3.77,"40°C/75% RH, 6 months",0.3%
same,% Total Degradation Products,"40°C/75% RH, 6 months",2.8%
same,% Water Content,"40°C/75% RH, 6 months",6.34%
same,Assay (label strength of 30 mg/mL),"40°C/75% RH, 6 months",97.1%
same,Osmolality,"40°C/75% RH, 6 months",324 mmol/kg
same,retest date supported by the data,stored at 2-8°C,12 month
